Laboratory results reported in patent publication US20040037806A1, “Aldosterone blocker therapy to prevent or treat inflammation-related disorders” (Pharmacia Corporation, priority 2002, published 2004).

What was measured:
Type in all cases: in vivo, rat
[1] = Assay A: angiotensin II infusion model, heart histology (hematoxylin&eosin), vascular inflammation and myocardial injury; conditions: Wistar rats, 1% NaCl, angiotensin II 25 ng/min sc, 4 weeks, 10/group; eplerenone 100 mpk; aldosterone replacement in adrenalectomized rats
Text: Assay A: In Vivo Angiotensin II Infusion Model
Male Wistar rats (n=50, 10/group; BW=200 g)
Sacrifice by exanguination after 4 weeks. Blood was be collected in dry tubes for determination of serum electrolytes and in EDTA-containing tubes for measurement of aldosterone and corticosterone levels
Hearts were stained with hematoxylin&eosin and have been analyzed for determination of morphologic abnormalities (i.e. necrosis, vascular injury).

[2] = test system: cyclooxygenase-2 (COX-2); assay: Assay A: cyclooxygenase-2 immunostaining of hearts; conditions: angiotensin II-infused, saline-drinking Wistar rats, eplerenone 100 mpk, aldosterone replacement in adrenalectomized rats
[3] = Assay A: angiotensin II infusion model, systolic blood pressure by tail-cuff; conditions: Wistar rats, 1% NaCl to drink, angiotensin II 25 ng/min sc, 4 weeks; eplerenone 100 mpk; aldosterone given to adrenalectomized, dexamethasone-treated rats
[4] = test system: osteopontin; assay: Assay A: osteopontin immunostaining of hearts; conditions: angiotensin II-infused, saline-drinking Wistar rats; eplerenone 100 mpk; aldosterone replacement in adrenalectomized rats
[5] = Assay A: angiotensin II infusion model, urinary Na+/K+ ratio (natriuresis index); conditions: Wistar rats, 1% NaCl, angiotensin II 25 ng/min sc; eplerenone 100 mpk
Text: Electrolyte excretion. The ratio between daily urinary Na^+ excretion and urinary K^+ excretion (U Na^+/K^+ ratio) was used as an index for natriuresis. Urinary Na^+/K^+ ratio was similar in all groups before the start of the treatments, and increased similarly in all animals upon initiation of the high salt diet.

angiotensin II (DRVYIHPF; Angiotensin-2; UniProt P01019 25-32, looked up) [vasoconstrictive octapeptide infused sc via alzet minipump to induce hypertension]
Vascular inflammatory lesions in the coronary arteries / heart [1]: Seven out of the ten
Cyclooxygenase-2 expression in the heart (immunostaining) [2]: presence of this enzyme in areas of inflammation around the arteries
Cyclooxygenase-2 expression in the heart (immunostaining) ([2]; listed as Ang II): induction of COX-2 expression
Systolic blood pressure [3]: increased
Osteopontin expression in the heart (immunostaining) [4]: presence of osteopontin in the media of coronary arteries
Urinary Na+/K+ ratio (index for natriuresis) [5]: significantly increased
